Tests used:
[1] = system: ACh-induced bronchoconstriction; test: Duration of bronchoprotection in guinea pig model of acetylcholine-induced bronchoconstriction; assay type: in vivo; details: inhalation, 1.5 hours post-dose
Method: Determination of Duration of Bronchoprotection in Guinea Pig Model of Acetylcholine-Induced Bronchoconstriction
Groups of six male guinea pigs (Duncan-Hartley (HsdPoc:DH) Harlan, Madison, Wis.) weighing between 250 and 350 g were individually identified by cage cards. Throughout the study animals were allowed access to food and water ad libitum.
Test compounds were administered via inhalation over 10 minutes in a whole-body exposure dosing chamber (R&S Molds, San Carlos, Calif.). The dosing chambers were arranged so that an aerosol was simultaneously delivered to 6 individual chambers from a central manifold. Guinea pigs were exposed to an aerosol of a test compound or vehicle (WFI). […] This was measured gravimetrically by comparing pre-and post-nebulization weights of the filled nebulizer.
The bronchoprotective effects of test compounds administered via inhalation were evaluated using whole body plethysmography at 1.5, 24, 48 and 72 hours post-dose.
Forty-five minutes prior to the start of the pulmonary evaluation, each guinea pig was anesthetized with an intramuscular injection of ketamine (43.75 mg/kg), xylazine (3.50 mg/kg) and acepromazine (1.05 mg/kg). […] The depth of anesthesia was monitored and adjusted if the animal responded to pinching of its paw or if the respiration rate was greater than 100 breaths/minute. […]

[2] = system: pilocarpine-evoked salivation; test: Inhalation guinea pig salivation assay; assay type: in vivo
Method: Inhalation Guinea Pig Salivation Assay
Guinea pigs (Charles River, Wilmington, Mass.) weighing 200–350 g were acclimated to the in-house guinea pig colony for at least 3 days following arrival. Test compound or vehicle were dosed via inhalation (IH) over a 10 minute time period in a pie shaped dosing chamber (R&S Molds, San Carlos, Calif.). Test solutions were dissolved in sterile water and delivered using a nebulizer filled with 5.0 mL of dosing solution. Guinea pigs were restrained in the inhalation chamber for 30 minutes. During this time, guinea pigs were restricted to an area of approximately 110 sq. cm. […] Upon completion of nebulization, guinea pigs were evaluated at 1.5, 6, 12, 24, 48, or 72 hrs after treatment.
Guinea pigs were anesthetized one hour before testing with an intramuscular (IM) injection of a mixture of ketamine 43.75 mg/kg, xylazine 3.5 mg/kg, and acepromazine 1.05 mg/kg at an 0.88 mL/kg volume. […] Saliva was collected for 10 minutes, at which point the gauze pad was weighed and the difference in weight recorded to determine the amount of accumulated saliva (in mg). The mean amount of saliva collected for animals receiving the vehicle and each dose of test compound was calculated. […] Results were calculated using result means (n=3 or greater). Confidence intervals (95%) were calculated for each dose at each time point using two-way ANOVA. […]

CNCC(=O)NCCCCCN1CC[C@@H](C(C(N)=O)(c2ccccc2)c2ccccc2)C1 [Example 1]
PD2(50) for ACh-induced bronchoconstriction [1]: less than 200 μg/mL | apparent lung selectivity index (ratio of anti-sialagogue ID50 to bronchoprotective ID50) [2]: greater than 5
